Experimental data as given in patent US9969753B2, “BCR-ABL diploid inhibitor, synthesizing method therefor, and uses thereof” (CHENGDU UNIVERSITY, priority 2014, dated 2018).
pIC50: −log10 of the molar value.

Assays:
c-Abl tyrosine kinase = c-Abl tyrosine kinase (Homo sapiens, UniProt P00519); experiment: Mobility Shift Assay, inhibition of kinase Abl in vitro; assay type: biochemical; details: 10 concentrations 100 μM to 0.005 μM
Procedure: (§1) Using the method of mobility Shift Assay, detect activity of the compound BGC with kinase Abl in vitro. The concentration of BGC was diluted from 100 μM with 100% DMSO to 0.005 μM using 3 times dilution method, 10 concentrations in total for detection (2 duplicate) with staurosporine as standard control, set solvent control (10% DMSO) and negative control (EDTA).
(§2) Detect activity of different concentrations of the compound BGC on 384 holes reaction plate by enzyme-linked immune response on the inhibition of the kinase Abl, read the conversion rate data on Caliper, and convert the conversion rate to inhibition rate. Percent inhibition=(max−conversion)/(max−min)*100
Wherein, max is the conversion rate of DMSO control; min refers to the conversion rate of enzyme-free control.
According to inhibition rate of the concentrations, calculate the half inhibitory concentration IC50 of the compound BGC to tyrosine kinase Abl.
as §1, with “Mobility” for “mobility”, “BP” for “BGC”
as §2, with “BP” for “BGC”
Wherein, max is the conversion rate of DMSO control, min refers to the conversion rate of enzyme-free control.
According to inhibition rate of the concentrations, calculate the half inhibitory concentration IC50 of the compound BP to tyrosine kinase c-Abl. […]
Detect activity of different concentrations of the compound BDB on 384 holes reaction plate by enzyme-linked immune response on the inhibition of the kinase Abl, read the conversion rate data on Caliper, and convert the conversion rate to inhibition rate. […]

[1] = tested on: KBM5 (human wild type Bcr-Abl) cells; experiment: KBM5 tumor growth inhibition test in vitro (ATP method); assay type: cell-based; details: 72 hours incubation, read-out: IC50, cytotoxicity to KBM5 cells
Procedure: (§3) Using ATP method to determine the cell toxicity of compound BGC of the present invention. Adjust the KBM5 cells to a suitable cell density. 140 ul cell suspensions inoculated each hole on 96-well plate. The vaccination density of each species cell is: 2000-6000; then the cell culture plate is placed in the incubator for 24 hours so that it is attached on the wall holes. Using 3 times dilution method to prepare the solution of BGC compound with different concentrations, and add them into the correspond holes on 96-well plate with vaccination in advance, 10 μL of each hole, and its final concentrations are as follows: 100 μM, 33.3 μM, 11.1 μM, 3.70 μM, 1.23 μM, 0.41 μM, 0.14 μM, 0.046 μM, 0.015 μM. Duplicate 3 times of each concentration. After 72 hours incubation in 37° C. incubator, detect the cell proliferation of each hole with ATP method, and calculate the drug concentration to median lethal concentration IC50 of KBM5 cells.
as §3, with “BP” for “BGC”, “KBM5 and KBM5R” for “KBM5”, “method” for “method,”
Using ATP method to determine the cell toxicity of compound BDB of the present invention. Adjust the KBM5 and KBM5R cells to a suitable cell density. 140 ul cell suspensions inoculated each hole on 96-well plate. […]

[2] = tested on: KBM5R (Bcr-Abl T315I mutation) cells; experiment: KBM5R tumor growth inhibition test in vitro (ATP method); assay type: cell-based; details: Homo sapiens, 72 hours incubation, read-out: IC50, cytotoxicity to KBM5R cells
Procedure: as §3, with “BP” for “BGC”, “KBM5 and KBM5R” for “KBM5”, “method” for “method,”
Using ATP method to determine the cell toxicity of compound BDB of the present invention. Adjust the KBM5 and KBM5R cells to a suitable cell density. 140 ul cell suspensions inoculated each hole on 96-well plate. The vaccination density of each species cell is: 2000-6000; then the cell culture plate is placed in the incubator for 24 hours so that it is attached on the wall holes. […]

[3] = tested on: KBM5 (Bcr-Abl positive) cell subcutaneous implanted tumor; experiment: Leukemia subcutaneous xenograft growth inhibition test, KBM5; assay type: in vivo, C57BL/6(Es-1^c) nude mice; details: dosed once a day for two weeks, tumor volume; for inhibitory effect compared with Imatinib in KBM5 subcutaneous tumor model: positive control 160 mg/Kg Imatinib
Source text: According to the test results of the growth inhibition in vitro, assess inhibitory effect of the BGC to transplant subcutaneously in C57BL/6(Es-1^c) nude mice with human leukemia KBM5 cells growth.
Study tumor growth if it can be inhibited, slowed or cured. Twice a week or every other day, use a vernier caliper to measure the tumor size. The calculation formula of tumor volume: V=0.5a×b^2, a, b respectively represent the long and short radius of the tumor.
(§4) Data analysis: T test is used for the comparison between the two groups; one-way ANOVA is used between three or more groups. If there is a significant difference of f value, multiple comparisons should be used additional to ANOVA analysis. Two-way ANOVA is used to analyze potential synergies of combined drug group. All data analysis use SPSS 17.0; p<0.05 is considered with a significant difference.
According to the test results of the growth inhibition in vitro, select the minimum IC50 of the compound BP of the present invention, assess inhibitory effect of the BP to transplant subcutaneously in C57BL/6(Es-1^c) nude mice with human leukemia KBM5 and KBM5R cells growth.
According to the test results of the growth inhibition in vitro, select the minimum IC50 of the compound BDB of the present invention, assess inhibitory effect of the BDB to transplant subcutaneously in C57BL/6(Es-1^c) nude mice with human leukemia KBM5 and KBM5R cells growth.

[4] = tested on: KBM5R (Bcr-Abl T315I mutation) cell subcutaneous implanted tumor; experiment: Leukemia subcutaneous xenograft growth inhibition test, KBM5R; assay type: in vivo, C57BL/6(Es-1^c) nude mice; details: dosed once a day for two weeks, tumor volume; Imatinib 160 mg/Kg
Source text: Twice a week or every other day, use a vernier caliper to measure the tumor size. The calculation formula of tumor volume: V=0.5a×b^2, a, b respectively represent the long and short radius of the tumor.
as §4

[5] = Preliminary pharmacokinetic study, single intravenous dosage; assay type: in vivo, female C57BL/6(Es-1^c) nude mice; details: female, C57BL/6(Es-1^c) nude, mouse, whole blood; intravenous 1 mg/kg, mice, non-compartmental model
Procedure: Experiment methods and procedures are as follows: female C57BL/6(Es-1^c) nude mice, weight 18-25 g, age 6-8 weeks, other, 3 female C57BL/6(Es-1^c) nude mice for blank samples, prepare for the standard curve for analysis. Intravenous dosage 1 mg/kg, delivery volume 5 mL/kg. Intravenous injection drug solution: DMSO:Solutol HS15:Saline=5:5:90, v/v/v. […] Female C57BL/6(Es-1^c) nude mice after intravenous injection dosage collect about 20 μL bloods from the mouse tail vein at 0.25 h, 2 h, 8 h and 24 h, use K2EDTA anticoagulant. Use steamed water to dilute the blood sample in accordance with volume in 3 times and store the diluted blood sample at −70° C. for analysis.
Data analysis: use WinNonlin (version 6.2) software, based on non-compartmental model to calculate the pharmacokinetic parameters.
Experiment methods and procedures are as follows: female C57BL/6(Es-1^c) nude mice, weight 18-25 g, age 6-8 weeks, other, 3 female C57BL/6(Es-1^c) nude mice for blank samples, prepare for the standard curve for analysis. Intravenous dosage 1 mg/kg, delivery volume 5 mL/kg. Intravenous injection drug solution: DMSO:Solutol HS15:Saline=5:5:90, v/v/v. […] Female C57BL/6(Es-1^c) nude mice after intravenous injection dosage collect about 20 μL blood from the mouse tail vein at 0.25h, 2h, 8h and 24 h, use K2EDTA anticoagulant. Use steamed water to dilute the blood sample in accordance with volume in 3 times and store the diluted blood sample at −70° C. for analysis.
Experiment methods and procedures are as follows: female C57BL/6(Es-1^c) nude mice, weight 18-25 g, age 6-8 weeks, other, 3 female C57BL/6(Es-1^c) nude mice for blank samples, prepare for the standard curve for analysis. Intravenous dosage 1 mg/kg, delivery volume 5 mL/kg.

Sequence of c-Abl tyrosine kinase (P00519 whole entry): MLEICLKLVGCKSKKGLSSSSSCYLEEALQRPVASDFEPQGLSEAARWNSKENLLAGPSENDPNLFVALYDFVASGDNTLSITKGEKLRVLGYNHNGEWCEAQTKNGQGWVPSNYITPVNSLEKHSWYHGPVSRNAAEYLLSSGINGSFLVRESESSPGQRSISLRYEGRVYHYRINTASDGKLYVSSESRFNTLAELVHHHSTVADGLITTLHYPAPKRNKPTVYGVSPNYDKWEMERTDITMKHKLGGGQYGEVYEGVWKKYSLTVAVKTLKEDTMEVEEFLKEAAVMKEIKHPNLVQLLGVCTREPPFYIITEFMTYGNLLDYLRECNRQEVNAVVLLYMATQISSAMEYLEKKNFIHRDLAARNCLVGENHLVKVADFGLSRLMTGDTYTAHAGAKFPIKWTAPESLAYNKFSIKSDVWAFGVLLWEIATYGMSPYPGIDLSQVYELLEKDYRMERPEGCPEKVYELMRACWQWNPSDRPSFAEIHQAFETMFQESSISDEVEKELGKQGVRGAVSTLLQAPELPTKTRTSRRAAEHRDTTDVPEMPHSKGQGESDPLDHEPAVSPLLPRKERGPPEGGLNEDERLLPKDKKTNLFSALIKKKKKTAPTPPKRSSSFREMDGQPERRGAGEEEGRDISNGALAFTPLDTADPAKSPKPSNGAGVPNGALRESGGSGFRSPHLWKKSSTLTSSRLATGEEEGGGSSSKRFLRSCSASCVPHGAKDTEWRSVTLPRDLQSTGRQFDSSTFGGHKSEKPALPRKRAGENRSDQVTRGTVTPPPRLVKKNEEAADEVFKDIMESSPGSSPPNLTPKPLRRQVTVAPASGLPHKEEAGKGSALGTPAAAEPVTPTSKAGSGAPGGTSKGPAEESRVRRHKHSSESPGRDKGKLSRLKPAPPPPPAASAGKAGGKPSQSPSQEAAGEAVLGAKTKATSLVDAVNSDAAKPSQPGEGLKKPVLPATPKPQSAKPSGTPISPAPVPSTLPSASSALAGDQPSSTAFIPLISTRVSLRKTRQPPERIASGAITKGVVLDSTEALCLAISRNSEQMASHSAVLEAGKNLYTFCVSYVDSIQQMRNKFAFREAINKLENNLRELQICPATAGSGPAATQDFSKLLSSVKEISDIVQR

| SMILES | pIC50 (c-Abl tyrosine kinase) | pIC50 [1] | pIC50 [2] | anti-tumor efficacy in KBM5 subcutaneous tumor model [3] | inhibitory effect compared with Imatinib in KBM5 subcutaneous tumor model [3] | anti-tumor efficacy in KBM5R subcutaneous tumor model [4] | half-life [5] |
| --- | --- | --- | --- | --- | --- | --- | --- |
| Cc1ccc(C(=O)Nc2ccc(CN3CCN(CCC(=O)NCCCOCCOCCOCCCNC(=O)CCCC(=O)NCCCOCCOCCOCCCNC(=O)CCN4CCN(Cc5ccc(NC(=O)c6ccc(C)c(C#Cc7cnc8cccnn78)c6)cc5C(F)(F)F)CC4)CC3)c(C(F)(F)F)c2)cc1C#Cc1cnc2cccnn12 [compound BP] | 8.00 | 5.70 | 5.30 | has anti-tumor efficacy | same inhibitory effect with a dosage of 80 mg/kg as Imatinib of 160 mg/kg | has anti-tumor efficacy | 210 min |
| Cc1ccc(NC(=O)c2ccc(CN3CCN(CCC(=O)NCCCOCCOCCOCCCNC(=O)CCCC(=O)NCCCOCCOCCOCCCNC(=O)CCN4CCN(Cc5ccc(C(=O)Nc6ccc(C)c(Nc7nccc(-c8cccnc8)n7)c6)cc5)CC4)CC3)cc2)cc1Nc1nccc(-c2cccnc2)n1 [compound BGC] | 7.70 | 5.05 | – | has anti-tumor efficacy | same inhibitory effect with a dosage of 350 mg/kg as Imatinib of 160 mg/kg | – | 210 min |
| CO[C@H](C(=O)N1Cc2[nH]nc(NC(=O)c3ccc(CN4CCN(CCC(=O)NCCCOCCOCCOCCCNC(=O)CCCC(=O)NCCCOCCOCCOCCCNC(=O)CCN5CCN(Cc6ccc(C(=O)Nc7n[nH]c8c7CN(C(=O)[C@H](OC)c7ccccc7)C8)cc6)CC5)CC4)cc3)c2C1)c1ccccc1 [compound BDB] | 7.30 | 5.15 | 5.05 | has anti-tumor efficacy | same inhibitory effect with a dosage of 80 mg/kg as Imatinib of 160 mg/kg | has anti-tumor efficacy | 228 min |
